This note sets out measurements from PMC5699221 (Biochemistry, 2017).

In series [1] the target is PaODH (Pseudomonas aeruginosa, UniProt Q9HUX5). Kind of series: NADPH fluorescence, titrated with enzyme. Format: binding.
The target in series [2] is PaNAS (Pseudomonas aeruginosa, UniProt Q9HUX4). Kind of series: biochemical.
Series [3] has as its system N[C@H](Cc1c[nH]cn1)C(=O)O. Kind of series: purified protein. The settings on record: co-substrate SAM, coupled with SaODH, NADPH, pyruvate, 50 mM Tris pH 8.

As a reminder, the Kd is the equilibrium constant for the complex coming apart. The low end stands for tighter binding, the high end for weaker binding. What is called Km is the concentration of substrate that gives half-maximal velocity. By kcat is commonly meant the number of substrate molecules converted per active site and unit of time at saturation.

PaNAS, sequence (Q9HUX4 whole entry): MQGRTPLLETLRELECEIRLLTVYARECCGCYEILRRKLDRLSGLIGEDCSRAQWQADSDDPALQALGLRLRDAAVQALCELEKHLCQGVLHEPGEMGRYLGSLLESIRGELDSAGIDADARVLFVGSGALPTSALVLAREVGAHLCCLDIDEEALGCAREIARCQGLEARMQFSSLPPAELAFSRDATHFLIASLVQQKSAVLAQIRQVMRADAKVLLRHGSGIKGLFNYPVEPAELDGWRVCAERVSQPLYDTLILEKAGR
PaODH, sequence (Q9HUX5 whole entry): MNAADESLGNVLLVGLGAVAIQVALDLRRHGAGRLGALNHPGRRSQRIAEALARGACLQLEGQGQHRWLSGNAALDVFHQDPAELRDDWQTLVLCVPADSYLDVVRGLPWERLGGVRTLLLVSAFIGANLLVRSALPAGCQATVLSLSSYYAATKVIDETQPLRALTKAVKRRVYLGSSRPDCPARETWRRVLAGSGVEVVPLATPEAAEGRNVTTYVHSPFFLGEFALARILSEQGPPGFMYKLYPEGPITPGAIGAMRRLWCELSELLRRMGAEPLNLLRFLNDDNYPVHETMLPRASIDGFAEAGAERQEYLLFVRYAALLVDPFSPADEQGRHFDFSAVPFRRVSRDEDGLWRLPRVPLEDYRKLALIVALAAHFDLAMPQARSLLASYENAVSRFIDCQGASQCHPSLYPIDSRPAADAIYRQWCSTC

With `NC(=O)C1=CN([C@@H]2O[C@H](COP(=O)(O)OP(=O)(O)OC[C@H]3O[C@@H](n4cnc5c(N)ncnc54)[C@H](OP(=O)(O)O)[C@@H]3O)[C@@H](O)[C@H]2O)C=CC1` [NADPH], in series [1], the Kd was 11 ± 1 µM.

`C[S+](CC[C@H](N)C(=O)O)C[C@H]1O[C@@H](n2cnc3c(N)ncnc32)[C@H](O)[C@@H]1O` (stereo partly shown) [SAM]: the Kd in series [2] worked out at 1.2 ± 0.3 µM.

As to “SaNAS (Staphylococcus aureus subsp. aureus Mu50)”, in series [3], the Km amounted to 13.0 ± 0.7 µM and the kcat came to 0.0298 ± 0.00033 s⁻¹.
